Measurements: article PMC8962522, “Direct interaction of TrkA/CD44v3 is essential for NGF-promoted aggressiveness of breast cancer cells” (Journal of Experimental & Clinical Cancer Research : CR, 2022)
“Also recorded” adds a separate entry of the source.

Legend:
[1] = tested on: TrkA/CD44v6 complex in MDA-MB-231 cells; assay: PLA TrkA/CD44v6 complex formation in MDA-MB-231 cells; format: cell-based; conditions: NGF 100 ng/ml; 30 fields per condition, three experiments
Description: Cells (10,000 cells per well) were grown on acid-washed eight-well glass slides (Thermo Scientific) in the appropriate medium supplemented with 10% FBS for 24 h. After NGF treatment, paraformaldehyde (PAF)-fixed cells were incubated with 4% bovine serum albumin (BSA) or 5% FBS (for 1 h at 20 °C), followed by overnight incubation with primary antibodies (rabbit anti-TrkA or rabbit anti-IgG + mouse anti-pan-CD44; mouse anti-CD44v3; mouse anti-CD44v6; mouse anti-IgG2a; mouse anti-IgG2b; or mouse anti-IgG1). PLA was performed following the manufacturer’s instructions in the assay kit (Duolink PLA; Sigma–Aldrich). To obtain the correct representation of the PLA signal for each condition, 30 fields per condition were observed using a fluorescence microscope (Eclipse TiU; Nikon, Japan). The PLA signals (red dots) were automatically quantified using ImageJ software (with an in-house-developed plug-in). […]
Fig. 3 CD44v3 mimetic peptide 4 blocks the TrkA-CD44 association in MDA-MB-231 breast cancer cells. TrkA/CD44v3 (A) and TrkA/CD44v6 (B) complex associations were detected by the proximity ligation assay (PLA) in MDA-MB-231 breast cancer cells. […] Quantification of the PLA results was performed by ImageJ software (30 randomly chosen fields per condition of three different experiments). […]

[2] = tested on: CD44v3 (CD44v3-His, whole cell extracts of COS-7 cells expressing CD44v3); assay: MST binding of NGF, TrkA or FGF to CD44v3; conditions: whole cell extracts of COS-7 expressing CD44v3, NGF alone, TrkA alone or FGF control
Description: MST was conducted using an NT.115 A Pico MST instrument (Nano Temper Technologies GmbH) equipped with red and blue filter sets. The TrkA-His tagged extracellular domain protein (Ala 34-Gly423) (9966-TK-050; R&D Systems, United Kingdom), diluted to 200 nM in PBS-T buffer (supplied by the vendor), was labeled using a Monolith His-Tag Labeling Kit with RED-Tris-NTA (Nano Temper). The RED-Tris-NTA dye was diluted in PBS-T to 100 nM. The mix was incubated at RT in the dark for 30 min. Next, an extract expressing CD44v3-labeled protein (CD44v3-His) and ligand and/or TrkA was mixed at a 1:1 ratio and incubated at RT in the dark for 15 min. For the binding check, peptides and TrkA-His were used. Capillaries were filled individually and loaded into the instrument. The data were acquired using high MST power and 100% LED. The data were analyzed using MO Control Software (Nano Temper).
Fig. 1 The C-terminal region of CD44 variant 3 binds to TrkA. A Schematic representation of the CD44 gene and protein structure. Alternative splicing leads to the expression of CD44 variants, thus the insertion of exon 8 leads to the expression of a CD44 protein containing variant 3 (CD44v3) and the insertion of exon 11 leads to the expression of a CD44 containing variant 6 (CD44v6) (B) TrkA/CD44v3 complex formation in COS-7 cells expressing TrkA and CD44v3 was detected by the proximity ligation assay (PLA), which was performed 0, 5 and 30 min after the initiation of NGF (100 ng/ml) treatment. The images represent signals detected by PLA. Quantification of the red spots was performed by ImageJ software (30 randomly chosen fields per condition of three different experiments). Statistical analyses were performed using one-way ANOVA followed by Bonferroni’s posttest. Error bars represent the standard error of the mean (S.E.M.); *** p < 0.001. ns, nonsignificant. C NGF and/or TrkA binding to CD44v3 was measured by microscale thermophoresis (MST). MST experiments were performed on whole cell extracts of COS-7 cells expressing CD44v3. […]

“NGF: recombinant human β-NGF (Alomone Labs, Israel)” was tested, and the “effect on TrkA/CD44v6 complex formation (PLA) in MDA-MB-231 cells” value [1] was “did not induce TrkA/CD44v6 complex formation” and the “binding to CD44v3 (in words)” value [2] was “No binding; also recorded: NGF did not bind to CD44v3; also recorded: NGF does not bind to CD44v3”.
